Target: T1, HA-S147A/S170A CaSR mutant (Rattus norvegicus, UniProt P48442, S147A/S170A)
T1 construct: mGluR5 signal peptide (N); expressed in transfected cells; host or cells: HEK293T
T1 sequence (P48442 20-1079 S147A/S170A): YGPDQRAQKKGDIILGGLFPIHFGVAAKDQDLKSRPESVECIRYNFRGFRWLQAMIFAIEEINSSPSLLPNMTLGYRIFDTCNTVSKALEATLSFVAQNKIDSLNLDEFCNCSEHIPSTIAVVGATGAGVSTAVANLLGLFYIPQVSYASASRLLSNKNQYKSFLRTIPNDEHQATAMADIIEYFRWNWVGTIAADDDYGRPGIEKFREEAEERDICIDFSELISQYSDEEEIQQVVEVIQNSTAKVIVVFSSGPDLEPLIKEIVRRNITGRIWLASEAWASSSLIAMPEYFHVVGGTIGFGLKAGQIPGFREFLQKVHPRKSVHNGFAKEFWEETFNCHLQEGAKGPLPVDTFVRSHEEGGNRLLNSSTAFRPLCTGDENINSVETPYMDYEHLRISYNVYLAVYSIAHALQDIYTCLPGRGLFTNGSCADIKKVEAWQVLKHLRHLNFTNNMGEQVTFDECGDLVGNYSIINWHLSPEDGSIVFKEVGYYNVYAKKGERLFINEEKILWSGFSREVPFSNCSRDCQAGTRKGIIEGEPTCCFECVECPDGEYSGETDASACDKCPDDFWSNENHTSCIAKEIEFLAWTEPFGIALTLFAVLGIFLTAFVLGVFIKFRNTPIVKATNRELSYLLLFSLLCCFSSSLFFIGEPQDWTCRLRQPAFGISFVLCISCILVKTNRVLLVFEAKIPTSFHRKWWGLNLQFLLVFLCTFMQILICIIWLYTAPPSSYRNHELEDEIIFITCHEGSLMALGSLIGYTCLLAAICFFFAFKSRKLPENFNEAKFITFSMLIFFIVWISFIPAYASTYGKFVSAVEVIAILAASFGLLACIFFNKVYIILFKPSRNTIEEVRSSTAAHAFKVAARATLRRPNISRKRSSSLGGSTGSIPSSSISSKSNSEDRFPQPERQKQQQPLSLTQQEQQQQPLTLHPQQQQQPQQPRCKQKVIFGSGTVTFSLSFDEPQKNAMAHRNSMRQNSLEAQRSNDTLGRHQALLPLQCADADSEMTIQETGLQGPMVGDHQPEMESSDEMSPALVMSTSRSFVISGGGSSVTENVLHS
Assay: IP-One assay, HEK293T transiently transfected
Format: cell-based

[Ca+2] [Ca^2+]
EC50 (Ca^2+ alone): 9.04 mM | Hill coefficient ± S.E.M. (Ca^2+ alone): 3.00 ± 0.07 | pEC50 ± S.E.M. (Ca^2+ alone): 2.04 ± 0.02 | Max ± S.E.M. (normalized to maximum response of WT CaSR): 130 ± 28%
